Here are results for four molecules from paper PMC10818931, “In Vitro Evaluation of Drug–Drug Interaction Potential of Epetraborole, a Novel Bacterial Leucyl-tRNA Synthetase Inhibitor” (Pharmaceuticals, 2024).

By Papp is commonly meant the rate of passage across a membrane or cell layer, normalised by area and donor concentration.

In series [1] the target is T1, BCRP (Homo sapiens, UniProt Q9UNQ0).
T1 construct: host or cells: MDCK (BCRP-MDCK)
T1 sequence (Q9UNQ0 1-655): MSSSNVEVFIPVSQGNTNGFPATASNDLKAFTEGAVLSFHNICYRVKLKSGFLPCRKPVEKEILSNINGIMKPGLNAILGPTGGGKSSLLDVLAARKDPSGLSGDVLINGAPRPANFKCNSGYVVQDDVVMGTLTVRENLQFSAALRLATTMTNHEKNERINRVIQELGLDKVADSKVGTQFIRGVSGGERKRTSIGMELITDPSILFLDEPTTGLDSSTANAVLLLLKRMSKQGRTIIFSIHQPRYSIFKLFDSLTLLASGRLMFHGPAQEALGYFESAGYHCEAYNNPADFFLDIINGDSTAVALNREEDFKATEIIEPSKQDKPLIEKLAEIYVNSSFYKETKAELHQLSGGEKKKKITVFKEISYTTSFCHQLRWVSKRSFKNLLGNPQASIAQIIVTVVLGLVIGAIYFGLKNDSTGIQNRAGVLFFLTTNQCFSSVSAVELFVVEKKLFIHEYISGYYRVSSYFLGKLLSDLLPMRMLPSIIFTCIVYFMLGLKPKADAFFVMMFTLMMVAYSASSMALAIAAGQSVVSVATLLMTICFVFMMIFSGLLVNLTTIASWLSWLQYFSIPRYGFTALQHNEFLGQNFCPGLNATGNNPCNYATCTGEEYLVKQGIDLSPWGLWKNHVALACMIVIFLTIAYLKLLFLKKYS
The series is described as follows: Substrate potential for BCRP, bidirectional permeability in BCRP-MDCK. The settings on record: human; BCRP-MDCK; read-out: Efflux ratio of control compound. The format is in vitro ADME.

Series [2] in a line: in vitro. The settings on record: human, Caco-2. The method, then: ^14C-EBO permeability in Caco-2 Cells (MDR1/Protein Glycoprotein or P-gp) was determined using methodologies described previously. The apparent permeability of ^14C-EBO was determined in both the apical to basolateral and the basolateral to apical directions, in triplicate, at final concentrations of 1, 10, and 100 μM. Cell monolayers were incubated with ^14C-EBO at 37 °C for 1, 2, 3, and 4 h. The transepithelial electrical resistance (TEER) values of the monolayers prior to and following each experiment were measured to confirm the integrity of the Caco-2 cell monolayers. The apparent permeability of ^14C-EBO (at a final concentration of 10 μM) was determined in both the apical to basolateral and basolateral to apical directions under the same conditions as previously described in the presence of P-gp inhibitors cyclosporine A (10 μM) and verapamil (100 μM) in the donor compartment.

Series [3] has as its system CYP2B6. The series is described as follows: CYP mRNA induction in plated human hepatocytes (qPCR). The settings on record: CYP2B6; for mRNA Induction Fold in Controls NC: flumazenil 25 µM; for mRNA Induction Fold in Controls PC: phenobarbital 750 µM. Here is the method:
(§1) The induction potential of EBO and M3 on CYP1A2, CYP2B6, and 3A4 was evaluated by incubating the test articles with plated human hepatocytes from 3 individual donors (GKJ, ZEY, WKF) in triplicate according to WuXi AppTec (Cranbury, NJ, USA) SOP.
(§2) At the end of incubation, the RNA of human hepatocytes was isolated and the mRNA expression levels of CYP 1A2, 2B6, and 3A4 were evaluated by using real-time polymerase chain reaction (qPCR) after being reverse-transcribed (RT) to cDNA following manufacturer’s instruction (thermos Fisher Scientific (Waltham, MA, USA). On the last dosing day with EBO or M3, incubation samples were extracted in triplicate by the addition of ice-cold quench solutions at 0, 0.5, 1, 2, 4, 6, and 24 h after dosing and the extracted samples were analyzed using LC-MS/MS to determine the EBO or M3 concentration in each sample.
A general note: Quantitative PCR measures a nucleic acid by following its amplification.

In series [4] the test system is CYP1A2. The description is as above. The note with it: CYP1A2, flumazenil 25 µM. The method, then:
as §1, §2

Series [5] has as its system CYP3A4. The series is described as above. The settings on record: CYP3A4, flumazenil 25 µM. Here is the method: as §1, §2
[6] abbreviates: donor one, control of EBO experiment.
The mark [7] stands for this setting: donor one, control of M3 experiment.
[8] abbreviates: donor three, control of EBO experiment.
Setting [9] is: donor three, control of M3 experiment.
Where [10] appears, read: donor two, control of EBO experiment.
Where [11] appears, read: donor two, control of M3 experiment.

`Nc1nc(Cl)nc2c1ncn2[C@H]1C[C@H](O)[C@@H](CO)O1` [cladribine, reference compound]: the efflux ratio in series [1] worked out at 288.
Molecule `OC[C@@H](O)[C@@H](O)[C@H](O)[C@H](O)CO` [mannitol, reference compound] registered an apparent permeability coefficient (Papp) in series [2] of 0.19 to 0.69 ×10⁻⁶ cm/s.
For `CCOC(=O)c1ncn2c1CN(C)C(=O)c1cc(F)ccc1-2` [flumazenil], the “mRNA Induction Fold in Controls NC” value worked out at 0.84 Fold in series [3] (setting [6]); 0.91 Fold in series [3] (setting [7]); 1.00 Fold in series [3] (setting [8]); 0.87 Fold in series [3] (setting [9]); 1.09 Fold in series [3] (setting [10]); 0.87 Fold in series [3] (setting [11]). The “mRNA Induction Fold in Controls NC” value in series [4] (setting [6]) amounted to 0.71 Fold; in series [4] (setting [7]), 0.94 Fold; in series [4] (setting [8]), 0.75 Fold; in series [4] (setting [9]), 0.74 Fold; in series [4] (setting [10]), 0.94 Fold; in series [4] (setting [11]) it was 0.82 Fold. In addition, the “mRNA Induction Fold in Controls NC” value in series [5] (setting [6]) was 0.89 Fold; in series [5] (setting [7]), 1.06 Fold; in series [5] (setting [8]), 0.98 Fold; in series [5] (setting [9]), 0.87 Fold; in series [5] (setting [10]), 0.96 Fold; in series [5] (setting [11]), 0.66 Fold.
On to `CCC1(c2ccccc2)C(=O)NC(=O)NC1=O` [phenobarbital], for which the “mRNA Induction Fold in Controls PC” value in series [3] (setting [6]) was 7.45 Fold; in series [3] (setting [7]) it was 9.17 Fold; in series [3] (setting [8]), 6.64 Fold; in series [3] (setting [9]), 6.86 Fold; in series [3] (setting [10]) it was 6.88 Fold; in series [3] (setting [11]), 6.29 Fold.
